Reference: patent US8173682B2, “Substituted pyridones as inhibitors of poly(ADP-ribose) polymerase (PARP)” (Aventis Pharmaceuticals Inc., priority 2004, dated 2012)
Structures can show the parent of a compound that is named as a salt.

Target: T1, recombinant human PARP (PARP1) (Homo sapiens, UniProt P09874)
T1 construct: Full length human PARP (PARP1) is assembled from PCR fragments; His6 tag with TEV site, from the pFastBac-HTb vector (own knowledge of the vector); made in house; host or cells: insect cells, baculovirus (Bac-to-Bac, Gibco-BRL)
T1 sequence (P09874 whole entry, the tested form may be a part): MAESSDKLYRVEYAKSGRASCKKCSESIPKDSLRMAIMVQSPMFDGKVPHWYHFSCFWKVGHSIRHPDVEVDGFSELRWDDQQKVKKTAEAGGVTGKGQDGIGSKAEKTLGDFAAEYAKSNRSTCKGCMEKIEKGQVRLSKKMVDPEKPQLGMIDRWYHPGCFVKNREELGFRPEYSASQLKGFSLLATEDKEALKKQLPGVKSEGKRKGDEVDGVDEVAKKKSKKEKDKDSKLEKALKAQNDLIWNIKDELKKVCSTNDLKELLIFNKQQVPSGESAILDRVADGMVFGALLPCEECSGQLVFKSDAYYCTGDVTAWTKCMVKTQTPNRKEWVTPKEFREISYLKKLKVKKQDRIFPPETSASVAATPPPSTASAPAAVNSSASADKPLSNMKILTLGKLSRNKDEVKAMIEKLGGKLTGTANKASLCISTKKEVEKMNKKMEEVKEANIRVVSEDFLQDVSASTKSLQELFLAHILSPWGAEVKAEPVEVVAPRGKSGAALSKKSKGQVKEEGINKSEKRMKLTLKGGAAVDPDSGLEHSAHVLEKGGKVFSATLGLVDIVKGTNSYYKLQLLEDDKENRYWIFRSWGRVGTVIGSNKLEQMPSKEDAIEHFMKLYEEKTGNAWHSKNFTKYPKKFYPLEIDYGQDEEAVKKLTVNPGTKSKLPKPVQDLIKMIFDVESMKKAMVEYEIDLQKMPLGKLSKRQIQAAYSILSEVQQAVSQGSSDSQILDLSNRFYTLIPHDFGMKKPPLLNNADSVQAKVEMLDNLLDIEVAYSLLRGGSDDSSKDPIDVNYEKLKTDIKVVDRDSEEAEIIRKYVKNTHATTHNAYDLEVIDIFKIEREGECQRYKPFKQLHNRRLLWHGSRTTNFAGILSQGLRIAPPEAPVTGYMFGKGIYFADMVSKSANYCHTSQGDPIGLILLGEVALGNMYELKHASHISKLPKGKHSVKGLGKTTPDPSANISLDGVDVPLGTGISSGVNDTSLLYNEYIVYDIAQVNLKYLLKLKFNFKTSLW
Assay: PARP enzyme assay, Method A (radioactivity or 'ELISA' enzyme assay with partially purified enzyme)
Format: biochemical
Details: recombinant human PARP preparation, radioactive or ELISA enzyme assay
Description: Two different methods are employed in determining the activity of the compounds of this invention in inhibiting the activity of PARP enzyme, designated as Method A and Method B respectively as set forth below.
Method A: Cloning and Expression, and Partial Purification of Recombinant Human PARP:
Full length human PARP (PARP1) is assembled from PCR fragments of a clone from a human brain cDNA library and two Incyte clones. The PARP gene (3046 bp) is sub-cloned into pFastBac-HTb vector to give PARP-pFastBac-HTb and the sequence of this clone is verified. PARP-pFastBac-HTb is expressed to obtain protein using the Bac-to-Bac expression protocol from Gibco-BRL. The recombinant virus generated is used to scale up the material for purification.
Cell pellets from cell broth of cells expressing PARP are treated with a cocktail of protease inhibitors and lysed by 4 freeze-thaw cycles. The material is suspended in 10 mM HEPES/0.1M NaCl/pH 7.2, stirred, and then centrifuged. A 40%-70% ammonium sulfate cut of protein pellet is obtained from the supernatant. The pellet is solubilized in 10 mM HEPES/pH 7.2 and centrifuged. The supernatant buffer is exchanged to 10 mM HEPES/pH 7.2/0.1M NaCl/25% glycerol by dialysis or with a desalting column. The enzyme preparation is stored at −20° C. until use.
The compounds of this invention are then tested with this enzyme preparation using either the radioactive enzyme assay or by the “ELISA” enzyme assay as set forth below.
Radioactivity Enzyme Assay:
Incorporation of radioactivity from labeled NAD into acid-precipitated protein is measured. The reaction mixture (volume 100 μL or 50 μL, in a test-tube or 96-well plate) contained 100 μg/mL calf thymus DNA (sonicated), 100 μg/mL histones, 100 mM Tris (pH 8.0), 1.0 mM DTT, 10 mM MgCl2, NAD (200 μM, 0.65 microcurie/mL), and varying amounts of enzyme. The reaction was incubated for 10 min at 37° C. or at room temperature for 60 min. The reaction was stopped and protein precipitated by addition of ice-cold trichloroacetic acid (TCA; 10% or 20% aqueous w/v). After brief storage in ice or at 4° C. for 2 hrs, the reaction mixture is filtered under vacuum through a glass fiber filter (2.5 cm disc, or 96-well filter plate). After washing with TCA and ethanol, the filter is dried and counted for tritium CPM after addition of scintillation fluid.
Incorporation of biotin-NAD into histone coated on plate is measured. A 96-well protein-binding EIA plate is coated with histone and blocked with bovine serum albumin. The reaction mixture (50 μL) contained DNA, buffer, enzyme, (test compound), and 250 μM of NAD and 5 μL of biotin-NAD (Trevigen). After reaction at room temperature the wells are washed and treated with Extravidin (Sigma). After incubation and washing color is developed with the peroxidase substrate TMB (Sigma). The TMB reaction is quenched with 2M sulfuric acid and the absorbance at 450 nm is read.

In order of falling IC50:
1. CCc1cc(-c2ccc(S(=O)(=O)N3CCC(O)CC3)s2)c(C)[nH]c1=O [Example 87, 3-Ethyl-5-[5-(4-hydroxypiperidine-1-sulfonyl)thiophen-2-yl]-6-methyl-1H-pyridin-2-one]  5.3 µM
2. CCc1cc(-c2ccc(CN3CCOCC3)c(C#N)c2)c(C)[nH]c1=O [Example 2, 5-(5-Ethyl-2-methyl-6-oxo-1,6-dihydropyridin-3-yl)-2-(morpholin-4-yl)methylbenzonitrile]  4.5 µM
3. CCc1cc(-c2ccc(CNc3cc(F)cc(F)c3)s2)c(C)[nH]c1=O [Example 145, 5-{5-[(3,5-Difluoro-phenylamino)-methyl]thiophen-2-yl}-3-ethyl-6-methyl-1H-pyridin-2-one hydrochloride]  4 µM
4. CCc1cc(-c2ccc(S(=O)(=O)N3CCC[C@H]3CNc3ccccc3)s2)c(C)[nH]c1=O [Example 105, 3-Ethyl-6-methyl-5-[5-((S)-2-phenylaminomethylpyrrolidine-1-sulfonyl)-thiophen-2-yl]-1H-pyridin-2-one hydrochloride]  3.1 µM
5. CCc1cc(-c2ccc(S(=O)(=O)N3CCN(CCO)CC3)s2)c(C)[nH]c1=O [Example 91, 3-Ethyl-5-{5-[4-(2-hydroxyethyl)piperazine-1-sulfonyl]thiophen-2-yl}-6-methyl-1H-pyridin-2-one hydrochloride]  2.9 µM
6. CCc1cc(-c2ccc(CN3CCC(Cc4ccccc4)CC3)s2)c(C)[nH]c1=O [Example 183, 5-[5-(4-Benzylpiperidin-1-ylmethyl)thiophen-2-yl]-3-ethyl-6-methyl-1H-pyridin-2-one hydrochloride]  2.4 µM
7. CCc1cc(-n2ccnn2)c(C)[nH]c1=O [Example 13, 3-Ethyl-6-methyl-5-(1,2,3-triazol-1-yl)-1H-pyridin-2-one]  2.1 µM
8. CCc1cc(-c2ccc(S(=O)(=O)N(C)CC(O)c3ccccc3)s2)c(C)[nH]c1=O (stereo not drawn) [Example 37, 5-(5-Ethyl-2-methyl-6-oxo-1,6-dihydropyridin-3-yl)thiophene-2-sulfonic acid (2-hydroxy-2-phenylethyl)methylamide]  2 µM
9. CCc1cc(-n2nccn2)c(C)[nH]c1=O [Example 12, 3-Ethyl-6-methyl-5-(1,2,3-triazol-2-yl)-1H-pyridin-2-one]  1.6 µM
10. CCc1cc(-c2ccc(S(=O)(=O)NCC3CCCO3)s2)c(C)[nH]c1=O (stereo not drawn) [Example 112, 5-(5-Ethyl-2-methyl-6-oxo-1,6-dihydropyridin-3-yl)thiophene-2-sulfonic acid (tetrahydrofuran-2-ylmethyl)amide]  1.2 µM
11. CCc1cc(-c2nc(C)nn2C)c(C)[nH]c1=O [Example 20, 5-(2,5-Dimethyl-2H-1,2,4-triazol-3-yl)-3-ethyl-6-methyl-1H-pyridin-2-one]  1.1 µM
12. CCc1cc(-c2ccc(CNCc3ccccc3Cl)s2)c(C)[nH]c1=O [Example 188, 5-{5-[(2-Chlorobenzylamino)methyl]thiophen-2-yl}-3-ethyl-6-methyl-1H-pyridin-2-one hydrochloride]  0.84 µM
13. CCc1cc(-c2ccc(CNCc3ccncc3)s2)c(C)[nH]c1=O [Example 152, 3-Ethyl-6-methyl-5-{5-{[(pyridin-4-ylmethyl)-amino]-methyl-thiophen-2-yl)-1H-pyridin-2-one dihydrochloride]  0.83 µM
14. CCc1cc(-c2ccc(S(=O)(=O)N(C)C)s2)c(C)[nH]c1=O [Example 28, 5-(5-Ethyl-2-methyl-6-oxo-1,6-dihydropyridin-3-yl)thiophene-2-sulfonic acid dimethylamide]  0.72 µM
15. CCc1cc(-c2nnc(C)o2)c(C)[nH]c1=O [Example 15, 3-Ethyl-6-methyl-5-(5-methyl-1,3,4-oxadiazol-2-yl)-1H-pyridin-2-one]  0.72 µM
16. CCc1cc(-c2ccc(CNC3CCN(Cc4ccccc4)C3)s2)c(C)[nH]c1=O (stereo not drawn) [Example 159, 5-{5-[(1-Benzyl-pyrrolidin-3-ylamino)-methyl]-thiophen-2-yl}-3-ethyl-6-methyl-1H-pyridin-2-one dihydrochloride]  0.72 µM
17. CCc1cc(-c2ccc(CNCc3ccc(C)cc3)s2)c(C)[nH]c1=O [Example 166, 5-{5-[(4-Methylbenzylamino)methyl]thiophen-2-y}]-3-ethyl-6-methyl-1H-pyridin-2-one hydrochloride]  0.68 µM
18. CCc1cc(-c2ccc(S(=O)(=O)N3CCCC(CO)C3)s2)c(C)[nH]c1=O (stereo not drawn) [Example 90, 3-Ethyl-5-[5-(3-hydroxymethylpiperidine-1-sulfonyl)thiophen-2-yl]-6-methyl-1H-pyridin-2-one]  0.68 µM
19. CCc1cc(-c2ccc(CN3CCC(O)CC3)s2)c(C)[nH]c1=O [Example 127, 3-Ethyl-5-[5-(4-hydroxy-piperidin-1-ylmethyl)-thiophen-2-yl]-6-methyl-1H-pyridin-2-one hydrochloride]  0.67 µM
20. CCc1cc(-c2ccc(CNCc3ccccn3)s2)c(C)[nH]c1=O [Example 195, 3-Ethyl-6-methyl-5-(5-{[(pyridin-2-ylmethyl)amino]methyl}thiophen-2-yl)-1H-pyridin-2-one hydrochloride]  0.67 µM
21. CCc1cc(-c2ccc(S(=O)(=O)N3CCN(c4ccccc4)CC3)s2)c(C)[nH]c1=O [Example 24, 3-Ethyl-6-methyl-5-[5-(4-phenylpiperazine-1-sulfonyl)thiophen-2-yl]-1H-pyridin-2-one]  0.63 µM
22. CCc1cc(-c2ccc(S(=O)(=O)N(C)Cc3cc(F)cc(F)c3)s2)c(C)[nH]c1=O [Example 29, 5-(5-Ethyl-2-methyl-6-oxo-1,6-dihydropyridin-3-yl)thiophene-2-sulfonic acid (3,5-difluorobenzyl)methylamide]  0.57 µM
23. CCc1cc(-c2ccc(CNCCc3ccccn3)s2)c(C)[nH]c1=O [Example 141, 3-Ethyl-6-methyl-5-{5-[(2-pyridin-2-ylethylamino)methyl]thiophen-2-yl}-1H-pyridin-2-one dihydrochloride]  0.54 µM
24. CCc1cc(-c2ccc(S(=O)(=O)NC3CCN(Cc4ccncc4)CC3)s2)c(C)[nH]c1=O [Example 82, 5-[5-Ethyl-2-methyl-6-oxo-1,6-dihydropyridin-3-yl]thiophene-2-sulfonic acid [1-(pyridin-4-yl)methyl(piperidin-4-yl)]amide dihydrochloride]  0.48 µM
25. CCc1cc(-c2ccc(CNC3Cc4ccccc4C3)s2)c(C)[nH]c1=O [Example 156, 3-Ethyl-5-[5-(indan-2-ylaminomethyl)-thiophen-2-yl]-6-methyl-1H-pyridin-2-one hydrochloride]  0.44 µM
26. CCc1cc(-c2ccc(S(=O)(=O)N(C)Cc3ccco3)s2)c(C)[nH]c1=O [Example 106, 5-(5-Ethyl-2-methyl-6-oxo-1,6-dihydro-pyridin-3-yl)thiophene-2-sulfonic acid furan-2-yl-methyl-methylamide]  0.43 µM
27. CCc1cc(-c2ccc(S(=O)(=O)N3CCN(c4ccncc4)CC3)o2)c(C)[nH]c1=O [Example 45, 3-Ethyl-6-methyl-5-{5-[(4-pyridin-4-yl)piperazine-1-sulfonyl]furan-2-yl}-1H-pyridin-2-one hydrochloride]  0.22 µM
28. CCc1cc(-c2ccc(S(=O)(=O)NCCCN3CCCC3)o2)c(C)[nH]c1=O [Example 49, 5-(5-Ethyl-2-methyl-6-oxo-1,6-dihydropyridin-3-yl)furan-2-sulfonic Acid (3-pyrrolidin-1-yl)propylamide hydrochloride]  0.18 µM
29. CCc1cc(-c2ccc(S(=O)(=O)NCc3ccc4c(c3)OCO4)s2)c(C)[nH]c1=O [Example 103, 5-(5-Ethyl-2-methyl-6-oxo-1,6-dihydropyridin-3-yl)-thiophene-2-sulfonic acid (1,3-benzodioxol-5-ylmethyl)amide]  0.14 µM
30. 5-(5-Ethyl-2-methyl-6-oxo-1,6-dihydropyridin-3-yl)thiophene-2-sulfonic acid (2-1′-[5-(5-ethyl-2-methyl-6-oxo-1,6-dihydropyridin-3-yl)thiophene-2-sulfonyl]-1H-imidazol-4-yl}ethyl)amide hydrochloride [Example 40]  0.13 µM
